Paper PMC13376213, “Systematic discovery of motif-based interactions of the auxiliary domains of USP family deubiquitinases” (Nature Communications, 2026)
Like-named read-outs stand apart in the source and are kept apart here. Each block holds one compound with its values, some of them ahead of it. Peptide text beside a SMILES is read from it. * marks the point of attachment. FITC = O=C1OC2(c3ccc(O)cc3Oc3cc(O)ccc32)c2ccc(NC(=S)*)cc21

How the values were obtained:
Type in all cases: binding
[1] = biological target: T1, USP22 zf-UBP domain (Homo sapiens, UniProt Q9UPT9); experiment: FP-monitored affinity measurements, USP22 zf-UBP; settings: USP22_zf-UBP
T1 construct: USP22_zf-UBP; Q9UPT9; zf-UBP; 37; 130; 6xHis-GST (N, cleaved yes); made in house; host or cells: Escherichia coli BL21-Gold (DE3)
T1 sequence (Q9UPT9 37-130): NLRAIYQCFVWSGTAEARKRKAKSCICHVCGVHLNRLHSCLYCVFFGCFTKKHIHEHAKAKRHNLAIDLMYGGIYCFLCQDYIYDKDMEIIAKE
Procedure: (§1) Proteins were expressed in Escherichia coli (E.coli) BL21-Gold (DE3) bacteria. The cDNAs encoding N-terminal 6-histidine-glutathione S-transferase tagged (6xHis-GST), 6xHis-tagged or GST-tagged protein domains in pETM33, pETM11, pGEX6P1 expression vectors respectively, were obtained from Genescript or kindly provided by MRC-PPU (Suppl. Data 1) The bacteria were transformed with the plasmid and grew at 37 °C in 2YT (5 g/L NaCl, 16 g/L tryptone and 10 g/L yeast extract) supplemented with Kanamycin (30 μg/mL) until reaching an OD600 of 0.7. Protein expression was induced with 0.3 mM isopropyl β-D-1 thiogalactopyranoside (IPTG) for 18 h at 18 °C while shaking. For zinc-finger domains, 50 μM of ZnSO4 was added during expression. The bacterial cultures were pelleted for 15 minutes at 4000 x g at 4 °C and stored at −20 °C until purification. The pellets were resuspended in lysis buffer (1× phosphate-buffered saline (PBS), 0.5 % Triton-X, 5 mM MgCl2, 10 μg/mL lysozyme, cOmplete^TM EDTA-free protease inhibitor cocktail (Roche), 10 μg/mL DNAseI) and incubated for 1 h shaking at 4 °C. […] The supernatant was incubated with glutathione (GSH) Sepharose (Cytiva) or Ni2+ Sepharose (Cytiva) for 1 h at 4 °C while shaking. The beads with the bound protein were washed with 1x PBS and eluted with 10 mM reduced glutathione in 50 mM Tris pH 8.0. For fluorescence polarization experiments, the proteins were not eluted from the beads, and the 6xHis-GST tag was cleaved overnight on GSH Sepharose beads at 4 °C while shaking with PreScission Protease in cleavage buffer (50 mM Tris pH 7.5, 150 mM NaCl, 1 mM DTT). The sample containing the cleaved domain was separated from the tag and protease and buffer-exchanged to 50 mM sodium phosphate buffer pH 7.4 with 1 mM DTT using a PD-10 desalting column (Cytiva). The purity and size of the proteins were analyzed by SDS-PAGE electrophoresis.
(§2) The measurements were performed at room temperature in a non-binding black half area 96-well plate (Corning) with a total volume of 50 μL per well. Peptides were obtained from GeneCust (France) with >95% purity. FITC-labeled peptides (N-terminally FITC-labeled without spacer and C-terminally amidated) were dissolved in dimethyl sulfoxide (DMSO), and unlabeled peptides (N-terminally acetylated and C-terminally amidated) were dissolved in 50 mM phosphate buffer pH 7.4. Saturation measurements were performed using a serial dilution of the protein domains in phosphate buffer (25 μL) and the addition of 10 nM FITC-labeled peptide (in phosphate buffer supplemented with 2 mM DTT) (25 μL). […] All measurements were performed in three technical replicates. The data were analyzed using GraphPad Prism version 9.2.0 for MacOS (GraphPad Software, San Diego, California USA, www.graphpad.com). The saturation curves were fitted to the quadratic equation, and the displacement curves were fitted to a sigmoidal dose-response equation as described previously.

[2] = biological target: T2, USP20 DUSP2 K833E-K835E (Homo sapiens, UniProt Q9Y2K6, K833E/K835E); experiment: FP-monitored affinity measurements, USP20 DUSP2 double mutant
T2 construct: USP20_DUSP2; Q9Y2K6; DUSP2; 776; 894; 6xHis-GST (N, cleaved yes); made in house; host or cells: Escherichia coli BL21-Gold (DE3)
T2 sequence (Q9Y2K6 with tags, fused parts or gaps K833E/K835E): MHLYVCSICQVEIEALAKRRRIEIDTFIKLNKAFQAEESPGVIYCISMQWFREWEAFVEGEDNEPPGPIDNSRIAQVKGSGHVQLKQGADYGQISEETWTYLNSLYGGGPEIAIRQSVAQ
Procedure: (§3) Proteins were expressed in Escherichia coli (E.coli) BL21-Gold (DE3) bacteria. The cDNAs encoding N-terminal 6-histidine-glutathione S-transferase tagged (6xHis-GST), 6xHis-tagged or GST-tagged protein domains in pETM33, pETM11, pGEX6P1 expression vectors respectively, were obtained from Genescript or kindly provided by MRC-PPU (Suppl. Data 1) The bacteria were transformed with the plasmid and grew at 37 °C in 2YT (5 g/L NaCl, 16 g/L tryptone and 10 g/L yeast extract) supplemented with Kanamycin (30 μg/mL) until reaching an OD600 of 0.7. Protein expression was induced with 0.3 mM isopropyl β-D-1 thiogalactopyranoside (IPTG) for 18 h at 18 °C while shaking. For zinc-finger domains, 50 μM of ZnSO4 was added during expression. […] For fluorescence polarization experiments, the proteins were not eluted from the beads, and the 6xHis-GST tag was cleaved overnight on GSH Sepharose beads at 4 °C while shaking with PreScission Protease in cleavage buffer (50 mM Tris pH 7.5, 150 mM NaCl, 1 mM DTT). […] The purity and size of the proteins were analyzed by SDS-PAGE electrophoresis.
(§4) The measurements were performed at room temperature in a non-binding black half area 96-well plate (Corning) with a total volume of 50 μL per well. […] The data were analyzed using GraphPad Prism version 9.2.0 for MacOS (GraphPad Software, San Diego, California USA, www.graphpad.com). […]

[3] = biological target: T3, USP20 DUSP2 N805A (Homo sapiens, UniProt Q9Y2K6, N805A); experiment: FP-monitored affinity measurements, USP20 DUSP2 single mutant
T3 construct: USP20_DUSP2; Q9Y2K6; DUSP2; 776; 894; 6xHis-GST (N, cleaved yes); made in house; host or cells: Escherichia coli BL21-Gold (DE3)
T3 sequence (Q9Y2K6 with tags, fused parts or gaps N805A): as the sequence (Q9Y2K6 with tags, fused parts or gaps K833E/K835E) above, with N31A, E59K, E61K counted along it
Procedure: as §3, §4

[4] = biological target: T4, USP11 DUSP-UBL domain (Homo sapiens, UniProt P51784); experiment: FP-based affinity measurements, USP11 DUSP-UBL
T4 construct: USP11_UBL; P51784; UBL; 6xHis-GST (N, cleaved yes); made in house; host or cells: Escherichia coli BL21-Gold (DE3)
T4 sequence (P51784 67-288): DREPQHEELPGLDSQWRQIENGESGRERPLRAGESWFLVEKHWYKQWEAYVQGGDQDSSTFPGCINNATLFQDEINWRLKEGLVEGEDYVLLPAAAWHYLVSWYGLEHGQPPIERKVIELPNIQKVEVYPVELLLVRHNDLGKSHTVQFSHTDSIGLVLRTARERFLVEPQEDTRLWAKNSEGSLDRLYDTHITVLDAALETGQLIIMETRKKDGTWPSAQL
Procedure: as §1
as §2, with “The saturation curves were fitted to the quadratic equation, and the displacement curves were fitted to a sigmoidal dose-response equation as described previously.” left out

[5] = biological target: T5, USP20 DUSP2 domain (Homo sapiens, UniProt Q9Y2K6); experiment: FP-monitored affinity measurements, USP20 DUSP2; settings: USP20_DUSP2; direct FP titration (saturation) of the FITC-labelled peptide; read-out: KD
T5 construct: USP20_DUSP2; Q9Y2K6; DUSP2; 776; 894; 6xHis-GST (N, cleaved yes); made in house; host or cells: Escherichia coli BL21-Gold (DE3)
T5 sequence (Q9Y2K6 with tags, fused parts or gaps): as the sequence (Q9Y2K6 with tags, fused parts or gaps K833E/K835E) above, with E59K, E61K counted along it
Procedure: as §1, §2

Kd ([1]; direct FP titration (saturation) of the FITC-labelled peptide): 1 µM
Compound: CC[C@H](C)[C@H](NC(=O)[C@H](Cc1c[nH]c2ccccc12)NC(=O)[C@H](CO)NC(=O)[C@H](CO)NC(=O)[C@H](Cc1c[nH]c2ccccc12)NC(=O)[C@@H]1CCCN1C(=O)[C@H](CCCCN)NC(=O)CNC(=O)[C@H](CC(C)C)NC(=O)[C@H](Cc1ccccc1)NC(=O)[C@H](C)NC(=O)[C@H](CCC(=O)O)NC(=O)[C@@H]1CCCN1C(=O)[C@H](CO)NC(=O)[C@@H]1CCCN1C(=O)[C@@H](NC(=S)Nc1ccc2c(c1)C(=O)OC21c2ccc(O)cc2Oc2cc(O)ccc21)C(C)C)C(=O)N[C@@H](CC(=O)O)C(=O)N[C@@H](C)C(=O)N[C@@H](C)C(=O)N[C@@H](CCCCN)C(=O)N[C@@H](CC(C)C)C(=O)N[C@@H](Cc1c[nH]cn1)C(N)=O [FITC-ATXN7L1_36-57] ({FITC}-VPSPEAFLGKPWSSWIDAAKLH-NH2)

Kd ([2]; FP, FITC-labeled probe peptide, double mutant domain (Fig. 5F), technical triplicate, read-out: KD, USP20 DUSP2 K833E-K835E with FITC-labeled probe peptide): > 290 µM | Kd ([3]; FP, FITC-labeled probe peptide, single mutant domain (Fig. 5F), technical triplicate, read-out: KD, USP20 DUSP2 N805A with FITC-labeled probe peptide): > 130 µM
Compound: CC[C@H](C)[C@H](NC(=O)[C@H](CC(N)=O)NC(=O)[C@H](Cc1c[nH]c2ccccc12)NC(=O)[C@H](C)NC(=O)[C@H](CC(C)C)NC(=O)[C@H](CC(=O)O)NC(=O)[C@H](CC(=O)O)NC(=O)[C@H](CC(=O)O)NC(=O)[C@H](CO)NC(=S)Nc1ccc2c(c1)C(=O)OC21c2ccc(O)cc2Oc2cc(O)ccc21)C(=O)N[C@@H](C)C(=O)N1CCC[C@H]1C(=O)N[C@@H](CCC(N)=O)C(=O)NCC(=O)N[C@@H](CC(C)C)C(=O)N[C@@H](CCC(N)=O)C(N)=O [FITC-GPR137B348-362] ({FITC}-SDDDLAWNIAPQGLQ-NH2)

Kd ([4]; FP saturation, FITC-labeled peptide, technical triplicates, read-out: KD, USP11 DUSP-UBL, labeled peptide (direct binding)): > 290 µM
Compound: CC[C@H](C)[C@H](NC(=O)[C@H](Cc1c[nH]c2ccccc12)NC(=O)[C@H](CC(=O)O)NC(=O)[C@@H]1CCCN1C(=O)[C@H](Cc1ccc(O)cc1)NC(=O)[C@@H](NC(=O)[C@@H](NC(=O)[C@H](C)NC(=O)[C@H](CO)NC(=S)Nc1ccc2c(c1)C(=O)OC21c2ccc(O)cc2Oc2cc(O)ccc21)C(C)C)[C@@H](C)O)C(=O)NCC(=O)N[C@@H](CCC(N)=O)C(=O)N[C@@H](CO)C(=O)N[C@@H](Cc1ccc(O)cc1)C(=O)N[C@@H](CO)C(=O)N[C@@H](CCC(=O)O)C(=O)N[C@H](C(N)=O)C(C)C [FITC-ORA1] ({FITC}-SAVTYPDWIGQSYSEV-NH2)

Kd ([4]; USP11_DUSP_UBL, direct FP titration (saturation) of the FITC-labelled peptide, read-out: KD): ~294 µM
Compound: CC[C@H](C)[C@H](NC(=O)[C@H](Cc1c[nH]c2ccccc12)NC(=O)[C@H](CC(=O)O)NC(=O)[C@@H]1CCCN1C(=O)[C@H](Cc1ccc(O)cc1)NC(=O)[C@@H](NC(=O)[C@@H](NC(=O)[C@H](C)NC(=O)[C@H](CO)NC(=S)Nc1ccc2c(c1)C(=O)OC21c2ccc(O)cc2Oc2cc(O)ccc21)C(C)C)[C@@H](C)O)C(=O)NCC(=O)N[C@@H](CCC(N)=O)C(=O)N[C@@H](CO)C(=O)N[C@@H](Cc1ccc(O)cc1)C(=O)N[C@@H](CO)C(=O)N[C@@H](CCC(=O)O)C(=O)N[C@H](C(N)=O)C(C)C [FITC-ORAI1] ({FITC}-SAVTYPDWIGQSYSEV-NH2)

Kd [5]: 5.14 µM | Kd ([2]; USP20_DUSP2_K833E/K835E, direct FP titration (saturation) of the FITC-labelled peptide, read-out: KD): ~293 µM | Kd ([3]; USP20_DUSP2_N805A, direct FP titration (saturation) of the FITC-labelled peptide, read-out: KD): ~140 µM
Compound: CC[C@H](C)[C@H](NC(=O)[C@H](CC(N)=O)NC(=O)[C@H](Cc1c[nH]c2ccccc12)NC(=O)[C@H](C)NC(=O)[C@H](CC(C)C)NC(=O)[C@H](CC(=O)O)NC(=O)[C@H](CC(=O)O)NC(=O)[C@H](CC(=O)O)NC(=O)[C@H](CO)NC(=S)Nc1ccc2c(c1)C(=O)OC21c2ccc(O)cc2Oc2cc(O)ccc21)C(=O)N[C@@H](C)C(=O)N1CCC[C@H]1C(=O)N[C@@H](CCC(N)=O)C(=O)NCC(=O)N[C@@H](CC(C)C)C(=O)N[C@@H](CCC(N)=O)C(N)=O [FITC_GPR137B] ({FITC}-SDDDLAWNIAPQGLQ-NH2)

Kd ([4]; USP11_DUSP_UBL, FP displacement of the FITC-labelled peptide by unlabelled peptide, read-out: KD): ~207 µM
Compound: Ac-SAVTYPDWIGQSYSEV-NH2 [ORAI1_USP11]

Kd ([1]; FP displacement by unlabelled peptide): 19.3 µM
Compound: Ac-VPSLDDFAGQSWSSWVE-NH2 [ATXN7L2_18-34]
